Laboratory results reported in the supplement of paper PMC10307832.

Key:
Experiment in all cases: relative viability (nuclei count vs DMSO), 5 days (fraction); higher = more cells survive
H3255 = system: H3255
In short: (§1)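 Cells from lung cancer lines were seeded into 1536-well plates and, one day later, dosed by pin tool. Treatments were either a single drug or a fixed dose of an anchor drug with five library-drug doses (not always all listed) in √10 steps. After 5 days, nuclei were stained in a one-step fixation (final 0.05% Triton X-100, 1% formaldehyde, 1 ug/ml Hoechst) and counted on 4× images, and relative viability is the treated-to-vehicle nuclei ratio, as the median of duplicate plates.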

NCI-H1915 = system: NCI-H1915
In short: as §1

LXF-289 = system: LXF-289
In short: as §1

A-427 = system: A-427
In short: as §1

SK-MES-1 = system: SK-MES-1
In short: as §1

NCI-H2087 = system: NCI-H2087
In short: as §1

SW 1573 = system: SW 1573
In short: as §1

NCI-H1793 = system: NCI-H1793
In short: as §1

NCI-H1975 = system: NCI-H1975
In short: as §1

NCI-H2170 = system: NCI-H2170
In short: as §1

SMILES: Cc1cn(-c2cc(NC(=O)c3ccc(C)c(Nc4nccc(-c5cccnc5)n4)c3)cc(C(F)(F)F)c2)cn1 [Nilotinib] + COc1cc2c(Oc3ccc(NC(=O)C4(C(=O)Nc5ccc(F)cc5)CC4)cc3F)ccnc2cc1OCCCN1CCOCC1 [Foretinib] (partner 0.25 µM)
- relative viability (H3255; first compound 0.001 µM): 0.943
- relative viability (H3255; first compound 0.003162 µM): 1.06
- relative viability (H3255; first compound 0.03162 µM): 0.845
- relative viability (H3255; first compound 0.1 µM): 0.296
- relative viability (NCI-H1915; first compound 0.001 µM): 0.966
- relative viability (NCI-H1915; first compound 0.003162 µM): 1.21
- relative viability (NCI-H1915; first compound 0.01 µM): 1.2
- relative viability (NCI-H1915; first compound 0.03162 µM): 0.983
- relative viability (NCI-H1915; first compound 0.1 µM): 0.952
- relative viability (LXF-289; first compound 0.001 µM): 0.968
- relative viability (LXF-289; first compound 0.003162 µM): 1.16
- relative viability (LXF-289; first compound 0.03162 µM): 0.893
- relative viability (LXF-289; first compound 0.1 µM): 0.761
- relative viability (A-427; first compound 0.001 µM): 0.945
- relative viability (A-427; first compound 0.003162 µM): 1.09
- relative viability (A-427; first compound 0.01 µM): 1.03
- relative viability (A-427; first compound 0.03162 µM): 0.792
- relative viability (A-427; first compound 0.1 µM): 0.476
- relative viability (SK-MES-1; first compound 0.003162 µM): 1.13
- relative viability (SK-MES-1; first compound 0.01 µM): 1.23
- relative viability (SK-MES-1; first compound 0.03162 µM): 0.904
- relative viability (SK-MES-1; first compound 0.1 µM): 0.963
- relative viability (NCI-H2087; first compound 0.001 µM): 1.03
- relative viability (NCI-H2087; first compound 0.003162 µM): 1.16
- relative viability (NCI-H2087; first compound 0.01 µM): 1.27
- relative viability (NCI-H2087; first compound 0.03162 µM): 0.83
- relative viability (NCI-H2087; first compound 0.1 µM): 0.761
- relative viability (SW 1573; first compound 0.001 µM): 0.949
- relative viability (SW 1573; first compound 0.003162 µM): 1.14
- relative viability (SW 1573; first compound 0.01 µM): 1.14
- relative viability (SW 1573; first compound 0.03162 µM): 0.753
- relative viability (SW 1573; first compound 0.1 µM): 0.808
- relative viability (NCI-H1793; first compound 0.001 µM): 0.768
- relative viability (NCI-H1793; first compound 0.003162 µM): 1.02
- relative viability (NCI-H1793; first compound 0.01 µM): 0.79
- relative viability (NCI-H1793; first compound 0.03162 µM): 0.542
- relative viability (NCI-H1793; first compound 0.1 µM): 0.582
- relative viability (NCI-H1975; first compound 0.001 µM): 0.956
- relative viability (NCI-H1975; first compound 0.003162 µM): 1.12
- relative viability (NCI-H1975; first compound 0.01 µM): 1.02
- relative viability (NCI-H1975; first compound 0.03162 µM): 0.74
- relative viability (NCI-H1975; first compound 0.1 µM): 0.957
- relative viability (NCI-H2170; first compound 0.001 µM): 1.03
- relative viability (NCI-H2170; first compound 0.003162 µM): 1.14
- relative viability (NCI-H2170; first compound 0.01 µM): 1.24
- relative viability (NCI-H2170; first compound 0.03162 µM): 0.995
